Experimental data taken from ChEMBL document CHEMBL1155790 (Bioorg Med Chem, 2008).

target: Cholinesterase (Equus caballus) (UniProt P81908); experiment: Inhibition of equine BChE at 10 uM by Ellman's method
Sequence (P81908 whole entry): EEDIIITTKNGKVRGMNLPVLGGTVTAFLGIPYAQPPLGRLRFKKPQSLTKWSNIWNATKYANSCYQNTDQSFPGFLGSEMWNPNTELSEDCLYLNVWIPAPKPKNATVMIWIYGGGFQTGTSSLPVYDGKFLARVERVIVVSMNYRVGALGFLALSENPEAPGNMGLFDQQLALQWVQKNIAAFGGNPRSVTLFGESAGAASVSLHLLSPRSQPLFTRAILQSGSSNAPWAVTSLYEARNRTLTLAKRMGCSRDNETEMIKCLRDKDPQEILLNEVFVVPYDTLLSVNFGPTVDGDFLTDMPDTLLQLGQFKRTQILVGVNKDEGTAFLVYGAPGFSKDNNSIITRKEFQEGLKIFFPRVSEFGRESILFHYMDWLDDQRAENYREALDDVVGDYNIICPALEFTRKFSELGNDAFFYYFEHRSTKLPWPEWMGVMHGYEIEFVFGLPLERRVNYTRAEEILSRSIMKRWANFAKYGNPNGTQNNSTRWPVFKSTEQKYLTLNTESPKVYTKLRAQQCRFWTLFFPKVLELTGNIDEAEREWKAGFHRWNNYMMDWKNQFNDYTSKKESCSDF

SMILES | inhibition
C[N+](C)(C)c1cc(O)cc(OCCCCOc2cc(O)cc([N+](C)(C)Cc3ccccc3)c2)c1 | 42%
COc1ccc2c(C)c(C)c(=O)oc2c1 | 25%
C[N+](C)(C)c1cccc(O)c1 | 13%

system: not listed separately; experiment: Selectivity index, IC50 for equine BChE to IC50 for bovine AChE by Ellman's method

SMILES | Selectivity Index
C[N+](C)(C)c1cc(O)cc(OCCCOc2cc(O)cc([N+](C)(C)C)c2)c1 | 1460
Cc1c(C)c2ccc(OCCCCOc3cc(O)cc([N+](C)(C)C)c3)cc2oc1=O | 708
C[N+](C)(C)c1cccc(OCCCCOc2cccc([N+](C)(C)C)c2)c1 | 15
Cc1c(C)c2ccc(OCCCOc3cc(O)cc([N+](C)(C)C)c3)cc2oc1=O | 505

target: Cholinesterase (Equus caballus, UniProt P81908)
Sequence (P81908 whole entry): as above
Description: Inhibition of equine BChE by Ellman's method

SMILES | IC50
C[N+](C)(C)c1cc(O)cc(OCCCOc2cc(O)cc([N+](C)(C)C)c2)c1 | 718 nM
C[N+](C)(C)c1cc(O)cc(OCCCCOc2cc(O)cc([N+](C)(C)C)c2)c1 | 715 nM
Cc1c(C)c2ccc(OCCCCOc3cc(O)cc([N+](C)(C)C)c3)cc2oc1=O | 708 nM
C[N+](C)(C)c1cccc(OCCCCOc2cccc([N+](C)(C)C)c2)c1 | 2340 nM
Cc1c(C)c2ccc(OCCCOc3cc(O)cc([N+](C)(C)C)c3)cc2oc1=O | 1060 nM

target: T1, Acetylcholinesterase (Bos taurus, UniProt P23795)
T1 sequence (P23795 whole entry): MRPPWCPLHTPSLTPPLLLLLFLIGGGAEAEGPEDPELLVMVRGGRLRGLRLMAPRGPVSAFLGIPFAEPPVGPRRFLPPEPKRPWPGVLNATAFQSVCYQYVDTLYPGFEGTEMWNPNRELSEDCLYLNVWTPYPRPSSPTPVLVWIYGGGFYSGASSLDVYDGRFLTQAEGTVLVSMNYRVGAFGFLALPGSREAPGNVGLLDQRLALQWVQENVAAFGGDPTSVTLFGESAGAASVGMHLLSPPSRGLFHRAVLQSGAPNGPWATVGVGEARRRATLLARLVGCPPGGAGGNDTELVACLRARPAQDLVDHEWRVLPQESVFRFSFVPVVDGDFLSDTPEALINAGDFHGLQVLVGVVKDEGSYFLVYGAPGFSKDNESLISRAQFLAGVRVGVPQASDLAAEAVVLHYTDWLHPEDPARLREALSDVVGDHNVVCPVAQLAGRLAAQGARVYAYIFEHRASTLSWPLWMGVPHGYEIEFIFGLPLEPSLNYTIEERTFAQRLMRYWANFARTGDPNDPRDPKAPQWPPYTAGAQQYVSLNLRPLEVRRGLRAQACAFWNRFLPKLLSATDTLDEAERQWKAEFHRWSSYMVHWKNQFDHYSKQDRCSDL
Description: Inhibition of bovine AChE by Ellman's method

SMILES | IC50
C=CC[N+](C)(C)c1ccc(CCC(=O)CCc2ccc([N+](C)(C)CC=C)cc2)cc1 | 8 nM
C[N+](C)(C)c1cc(O)cc(OCCCOc2cc(O)cc([N+](C)(C)C)c2)c1 | 0.49 nM
CN(C)c1cc(O)cc(OCCCOc2cc(O)cc(N(C)C)c2)c1 | 1910 nM
C[N+](C)(C)c1cc(O)cc(OCCCCOc2cc(O)cc([N+](C)(C)Cc3ccccc3)c2)c1 | 6560 nM
COc1ccc2c(C)c(C)c(=O)oc2c1 | 42000 nM
C[N+](C)(C)c1cccc(O)c1 | 12000 nM
Cc1c(C)c2ccc(OCCCCOc3cc(O)cc(N(C)C)c3)cc2oc1=O | 275 nM
CN(C)c1cc(O)cc(OCCCCOc2cc(O)cc(N(C)C)c2)c1 | 6460 nM
Cc1c(C)c2ccc(OCCCCOc3cc(O)cc([N+](C)(C)C)c3)cc2oc1=O | 1 nM
Cc1c(C)c2ccc(OCCCOc3cc(O)cc(N(C)C)c3)cc2oc1=O | 871 nM
C[N+](C)(C)c1cccc(OCCCCOc2cccc([N+](C)(C)C)c2)c1 | 158 nM
CC[N+](CC)(CCNC(=O)C(=O)NCC[N+](CC)(CC)Cc1ccccc1Cl)Cc1ccccc1Cl [AMBENONIUM] | 0.12 nM
Cc1c(C)c2ccc(OCCCOc3cc(O)cc([N+](C)(C)C)c3)cc2oc1=O | 2.1 nM
CN(C)c1cc(O)cc(OCCCOc2cc(O)cc(N(C)Cc3ccccc3)c2)c1 | 6170 nM

target: T2, Acetylcholinesterase (Bos taurus) (UniProt P23795); experiment: Inhibition of bovine AChE at 50 uM by Ellman's method
T2 sequence (whole entry): T1 sequence (P23795 whole entry)

SMILES | inhibition
CN(Cc1ccccc1)c1cc(O)cc(OCCCOc2cc(O)cc(N(C)Cc3ccccc3)c2)c1 | 3%
CN(Cc1ccccc1)c1cc(O)cc(OCCCCOc2cc(O)cc(N(C)Cc3ccccc3)c2)c1 | 3%

target: T2, Acetylcholinesterase (Bos taurus); experiment: Inhibition of bovine AChE at 10 uM by Ellman's method

SMILES | inhibition
Cc1c(C)c2ccc(OCCCOc3cc(O)cc(N(C)Cc4ccccc4)c3)cc2oc1=O | 8%
Cc1c(C)c2ccc(OCCCCOc3cc(O)cc(N(C)Cc4ccccc4)c3)cc2oc1=O | 15%
CN(Cc1ccccc1)c1cc(O)cc(OCCCCOc2cc(O)cc(N(C)Cc3ccccc3)c2)c1 | 14%
CN(C)c1cc(O)cc(OCCCCOc2cc(O)cc(N(C)Cc3ccccc3)c2)c1 | 40%

target: Cholinesterase (Equus caballus) (UniProt P81908); experiment: Inhibition of equine BChE at 50 uM by Ellman's method

SMILES | inhibition
Cc1c(C)c2ccc(OCCCCOc3cc(O)cc(N(C)C)c3)cc2oc1=O | 25%
CN(C)c1cc(O)cc(OCCCCOc2cc(O)cc(N(C)C)c2)c1 | 25%
